The results in this text go back to patent US8841312B2, “Fused pyridine, pyrimidine and triazine compounds as cell cycle inhibitors” (Amgen Inc., priority 2007, dated 2014).

For one assay, the target named is Cdk4/CyclinD1 (Homo sapiens (Human), UniProt P11802). The experiment in a line: Cdk4 kinase inhibition assay with recombinant Cdk4/CyclinD1, Rb substrate, [33P]-ATP filter plate. It is filed as biochemical. The conditions noted are these: 25 μM ATP, read-out: Cdk 4 IC50. The procedure, abridged:
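Recombinant Cdk4/CyclinD1 or Cdk6/CyclinD3 phosphorylated Rb protein with [33P]-ATP for 1 h at room temperature. Protein was TCA-precipitated on filter plates and bound radioactivity counted. IC50 by nonlinear regression.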

In another assay the target is Cdk6/CyclinD3 (Homo sapiens (Human), UniProt Q00534). In words: Cdk6 kinase inhibition assay with recombinant Cdk6/CyclinD3, Rb substrate, [33P]-ATP filter plate. The class given is biochemical. As to conditions: 25 μM ATP, read-out: Cdk 6 IC50. The protocol:
The Cdk4 and Cdk6 inhibitory activity of the compounds is measured with a kinase inhibition assay using recombinant Cdk4/CyclinD1 or Cdk6/CyclinD3 protein complexes. The protein substrate used in the assay is the retinoblastoma protein (Rb). The kinase reactions are carried out in a 96-well filter plate (MSDV N6B50, Millipore). […] The mixture is incubated at room temperature for 1 hour and the proteins precipitated with an equal volume of 20% TCA. The plates are washed with 10% TCA according to the manufacturer's instruction and dried at room temperature. The amount of the phosphorylated Rb is determined with a TopCount (PerkinElmer). The IC50 of a compound is determined by nonlinear regression curve fitting using software program Prism 5 (GraphPad Software).

Sequence of Cdk6/CyclinD3 (Q00534 whole entry): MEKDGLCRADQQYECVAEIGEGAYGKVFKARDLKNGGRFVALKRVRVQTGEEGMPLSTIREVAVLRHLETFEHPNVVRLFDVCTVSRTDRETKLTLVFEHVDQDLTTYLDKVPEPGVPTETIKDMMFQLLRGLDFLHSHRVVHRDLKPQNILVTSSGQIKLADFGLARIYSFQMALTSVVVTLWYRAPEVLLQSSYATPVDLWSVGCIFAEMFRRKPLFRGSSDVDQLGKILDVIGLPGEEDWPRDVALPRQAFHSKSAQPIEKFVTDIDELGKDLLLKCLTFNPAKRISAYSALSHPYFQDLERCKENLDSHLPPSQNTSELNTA
Sequence of Cdk6/CyclinD3 (P30281 whole entry partner): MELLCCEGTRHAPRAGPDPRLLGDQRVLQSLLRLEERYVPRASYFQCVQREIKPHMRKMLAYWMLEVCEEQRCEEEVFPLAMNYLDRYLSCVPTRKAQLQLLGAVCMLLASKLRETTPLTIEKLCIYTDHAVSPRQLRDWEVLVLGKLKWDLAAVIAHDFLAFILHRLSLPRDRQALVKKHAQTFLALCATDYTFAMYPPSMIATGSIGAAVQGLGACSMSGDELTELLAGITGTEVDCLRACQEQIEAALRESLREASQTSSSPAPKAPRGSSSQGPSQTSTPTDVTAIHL
Sequence of Cdk4/CyclinD1 (P11802 whole entry): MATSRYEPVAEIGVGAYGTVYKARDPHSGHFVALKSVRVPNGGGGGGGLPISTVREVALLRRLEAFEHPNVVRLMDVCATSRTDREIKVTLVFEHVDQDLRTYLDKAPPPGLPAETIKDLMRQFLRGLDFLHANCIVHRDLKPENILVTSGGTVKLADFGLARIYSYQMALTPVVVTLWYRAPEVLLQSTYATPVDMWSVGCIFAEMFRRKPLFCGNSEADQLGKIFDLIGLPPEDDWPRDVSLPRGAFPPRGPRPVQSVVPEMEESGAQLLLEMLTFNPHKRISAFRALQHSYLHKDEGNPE
Sequence of Cdk4/CyclinD1 (P24385 whole entry partner): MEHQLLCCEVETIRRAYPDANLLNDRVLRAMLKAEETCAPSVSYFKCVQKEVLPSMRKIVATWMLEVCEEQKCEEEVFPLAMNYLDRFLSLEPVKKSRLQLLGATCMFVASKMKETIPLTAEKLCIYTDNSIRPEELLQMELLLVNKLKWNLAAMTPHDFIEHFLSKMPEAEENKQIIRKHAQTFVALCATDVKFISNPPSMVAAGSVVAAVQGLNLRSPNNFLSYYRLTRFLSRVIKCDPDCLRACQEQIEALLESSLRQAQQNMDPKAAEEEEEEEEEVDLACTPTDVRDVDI

Take `c1ccc2c(c1)c1cnc(Nc3ccc(N4CCNCC4)cc3)nc1n2C1CCCC1` [Example 47, (9-Cyclopentyl-9H-pyrimido[4,5-b]indol-2-yl)-(4-piperazin-1-yl-phenyl)-amine]: the IC50 at Cdk4/CyclinD1 stood at 2 nM; on Cdk6/CyclinD3, 3.7 nM.
On the same counts, the results for `O[C@@H]1CCN(c2ccc(Nc3ncc4c5ccncc5n(C5CCC5)c4n3)nc2)C1` [Example 435] are 42 nM and 92 nM.
On the same counts, the results for `CN(C)C1CCN(c2ccc(Nc3ncc4c5ccnc(Cl)c5n(C5CCCC5)c4n3)nc2)CC1` [Example 153, 8-Chloro-9-cyclopentyl-N-(5-(4-(dimethylamino)-1-piperidinyl)-2-pyridinyl)-9H-pyrido[4′,3′:4,5]pyrrolo[2,3-d]pyrimidin-2-amine] are 1 nM and 2.8 nM.
On the same counts, the results for `O[C@@H]1CCCN(C2CCN(c3ccc(Nc4ncc5c6ccncc6n(C6CCCC6)c5n4)nn3)CC2)C1` [Example 451] are 13 nM and 18 nM.
On to `FC(F)(F)CNC1CCN(c2ccc(Nc3ncc4c5ccncc5n(C5CCCC5)c4n3)nc2)CC1` [Example 470], for which the results for the IC50 at Cdk4/CyclinD1 and on Cdk6/CyclinD3 were 11 nM and 38 nM, respectively.
Regarding `CN(C)C1CCN(c2ccc(Nc3ncc4c5ccncc5n(C5CCCC5)c4n3)nn2)CC1` [Example 13], the IC50 at Cdk4/CyclinD1 stood at 1 nM; on Cdk6/CyclinD3 it was 2.6 nM.
On the same counts, the results for `c1ccc2c(c1)c1cnc(Nc3ccc(N4CCNCC4)nn3)nc1n2C1CCCC1` [Example 307] are 11 nM and 8.8 nM.
On the same counts, the results for `c1cc2c3cnc(Nc4ccc(NCC5CNC5)nn4)nc3n(C3CCCC3)c2cn1` [Example 97] are 430 nM and 396 nM.
For `O=C1CNCCN1Cc1ccc(Nc2ncc3c4ccncc4n(C4CCCC4)c3n2)nc1` [Example 226, 1-((6-((9-cyclopentyl-9H-pyrido[4′,3′:4,5]pyrrolo[2,3-d]pyrimidin-2-yl)amino)-3-pyridinyl)methyl)-2-piperazinone], the IC50 came to 3.2 nM at Cdk4/CyclinD1 and 2.7 nM at Cdk6/CyclinD3.
For `Clc1nccc2c3cnc(Nc4ccc(N5CCNCC5)cn4)nc3n(C3CCCC3)c12` [Example 152, 8-Chloro-9-cyclopentyl-N-(5-(1-piperazinyl)-2-pyridinyl)-9H-pyrido[4′,3′:4,5]pyrrolo[2,3-d]pyrimidin-2-amine] the same measures were 2 nM and 4.3 nM.
Consider `O=S(=O)(c1ccc(Nc2ncc3c4ccnc(F)c4n(C4CCCC4)c3n2)nc1)N1CCNCC1` [Example 228, 9-cyclopentyl-8-fluoro-N-(5-(1-piperazinylsulfonyl)-2-pyridinyl)-9H-pyrido[4′,3′:4,5]pyrrolo[2,3-d]pyrimidin-2-amine], for which the IC50 came to 15 nM on Cdk4/CyclinD1 and 3.9 nM on Cdk6/CyclinD3.
For `CNC1CCN(c2ccc(Nc3ncc4c5ccncc5n(C5CCC5)c4n3)nc2)CC1` [Example 345] the same measures were 21 nM and 15 nM.
Take `OCCCn1c2cnccc2c2cnc(Nc3ccc(N4CCNCC4)nn3)nc21` [Example 352]: the concentration for half-maximal inhibition (IC50) on Cdk4/CyclinD1 was 146 nM; at Cdk6/CyclinD3, 53 nM.
Regarding `C[C@H](O)CNC1CCN(c2ccc(Nc3ncc4c5ccncc5n(C5CCCC5)c4n3)nn2)CC1` [Example 439], the figures for the IC50 at Cdk4/CyclinD1 and on Cdk6/CyclinD3 were 3.7 nM and 5.7 nM, respectively.
On the same counts, the results for `CN(C)C1CCN(C(=O)c2ccc(Nc3ncc4c5ccncc5n(C5CCCC5)c4n3)nc2)CC1` [Example 230, 9-Cyclopentyl-N-(5-((4-(dimethylamino)-1-piperidinyl)carbonyl)-2-pyridinyl)-9H-pyrido[4′,3′:4,5]pyrrolo[2,3-d]pyrimidin-2-amine] are 16 nM and 16 nM.
Consider `Cn1c(=O)ccc2c3cnc(Nc4ccc(N5CCNCC5)cn4)nc3n(C3CCCC3)c21` [Example 184, 9-Cyclopentyl-8-methyl-2-((5-(1-piperazinyl)-2-pyridinyl)amino)-8,9-dihydro-7H-pyrido[3′,2′:4,5]pyrrolo[2,3-d]pyrimidin-7-one], for which the IC50 on Cdk4/CyclinD1 turned out to be 8.6 nM; at Cdk6/CyclinD3, 31 nM.

The IC50 is the concentration needed to halve the response being measured.
